Results from PubChem BioAssay (NCI).
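Assay format: 96-well plates, 48-hour exposure. TGI: concentration producing complete growth inhibition.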

What was measured:
Assay in all cases: NCI tumour cell line growth inhibition, 48 h
[1] = test system: OVCAR-8 ovarian
[2] = test system: HL-60(TB) leukemia
[3] = test system: HS 578T breast
[4] = test system: LOX IMVI melanoma
[5] = test system: NCI-H522 lung
[6] = test system: SNB-19 CNS
[7] = test system: RXF 393 renal
[8] = test system: OVCAR-4 ovarian
[9] = test system: UACC-257 melanoma
[10] = test system: OVCAR-5 ovarian
[11] = test system: SN12C renal
[12] = test system: HCT-116 colon
[13] = test system: K-562 leukemia
[14] = test system: MALME-3M melanoma
[15] = test system: ACHN renal
[16] = test system: SF-268 CNS
[17] = test system: CCRF-CEM leukemia
[18] = test system: U251 CNS
[19] = test system: MDA-MB-231 breast
[20] = test system: HCC-2998 colon
[21] = test system: UACC-62 melanoma
[22] = test system: HOP-92 NSCLC
[23] = test system: M14 melanoma
[24] = test system: HCT-15 colon
[25] = test system: HT29 colon
[26] = test system: OVCAR-3 ovarian
[27] = test system: SK-OV-3 ovarian
[28] = test system: MDA-MB-435
[29] = test system: SK-MEL-28 melanoma
[30] = test system: COLO 205 colon
[31] = test system: CAKI-1 renal
[32] = test system: SNB-75 CNS
[33] = test system: UO-31 renal
[34] = test system: KM12 colon
[35] = test system: TK-10 renal
[36] = test system: NCI-H23 lung
[37] = test system: RPMI-8226 leukemia
[38] = test system: PC-3 prostate
[39] = test system: MOLT-4 leukemia
[40] = test system: NCI-H226 lung
[41] = test system: NCI/ADR-RES ovarian
[42] = test system: SF-295 CNS
[43] = test system: HOP-62 NSCLC
[44] = test system: SF-539 CNS
[45] = test system: 786-0 renal
[46] = test system: SK-MEL-2 melanoma
[47] = test system: BT-549 breast
[48] = test system: A498 renal
[49] = test system: MCF7 breast
[50] = test system: NCI-H460 lung
[51] = test system: T-47D breast
[52] = test system: EKVX NSCLC
[53] = test system: SR leukemia
[54] = test system: SW-620 colon
[55] = test system: DU-145 prostate
[56] = test system: SK-MEL-5 melanoma
[57] = test system: A549 NSCLC
[58] = test system: IGROV1 ovarian
[59] = test system: MDA-N

Compound CC(C)C(Br)CC/C(CBr)=C(\Cl)CCl (stereo not drawn) has a TGI [1] of 9.82 µM, a TGI [2] of 3.86 µM and a TGI [3] of 15.4 µM. The TGI [4] was 1.08 µM, the TGI [5] was 2.02 µM and the TGI [6] was 31.1 µM. For the same compound, the TGI [7] was 3.66 µM, the TGI [8] was 6.48 µM and the TGI [9] was 9.52 µM. For the same compound, the TGI [10] was 23.3 µM, the TGI [11] was 8.5 µM and the TGI [12] was 5.11 µM. It also gave a TGI [13] of 3.03 µM, a TGI [14] of 15.2 µM and a TGI [15] of 28.2 µM. It also gave a TGI [16] of 27.9 µM, a TGI [17] of 0.995 µM and a TGI [18] of 17.5 µM. It also gave a TGI [19] of 7.71 µM, a TGI [20] of 26.3 µM and a TGI [21] of 7.71 µM. The TGI [22] was 6.84 µM, the TGI [23] was 3.82 µM and the TGI [24] was 4.82 µM. It also gave a TGI [25] of 4.09 µM, a TGI [26] of 8.21 µM and a TGI [27] of 11.3 µM. The TGI [28] was 5.16 µM, the TGI [29] was 10.1 µM and the TGI [30] was 8.53 µM. The TGI [31] was 9.89 µM, the TGI [32] was 13.4 µM and the TGI [33] was 15.8 µM. For the same compound, the TGI [34] was 17.9 µM, the TGI [35] was 20.1 µM and the TGI [36] was 12.3 µM. For the same compound, the TGI [37] was 4.49 µM, the TGI [38] was 16.3 µM and the TGI [39] was 2.36 µM. For the same compound, the TGI [40] was 6.97 µM, the TGI [41] was 16.2 µM and the TGI [42] was 28.7 µM. The TGI [43] was 30.3 µM, the TGI [44] was 11.4 µM and the TGI [45] was 3.49 µM. It also gave a TGI [46] of 4.35 µM, a TGI [47] of 3.27 µM and a TGI [48] of 35 µM. For the same compound, the TGI [49] was 19.3 µM, the TGI [50] was 30.6 µM and the TGI [51] was 3.43 µM. For the same compound, the TGI [52] was 31.9 µM, the TGI [53] was 3.71 µM and the TGI [54] was 3.94 µM. For the same compound, the TGI [55] was 25.2 µM, the TGI [56] was 3.8 µM and the TGI [57] was 33.3 µM. The TGI [58] was 3.64 µM and the TGI [59] was 3.81 µM.
Compound c1ccc2cc(CN3CCC(C4CCN(Cc5ccc6ccccc6c5)CC4)CC3)ccc2c1 has a TGI [1] of 17.9 µM, a TGI [2] of 4.45 µM and a TGI [3] of 6.6 µM. For the same compound, the TGI [4] was 13.2 µM, the TGI [5] was 4.28 µM and the TGI [6] was 27.2 µM. For the same compound, the TGI [7] was 8.51 µM, the TGI [8] was 21.7 µM and the TGI [9] was 3.68 µM. The TGI [10] was 24.9 µM, the TGI [11] was 44.5 µM and the TGI [12] was 18.4 µM. The TGI [13] was > 100 µM, the TGI [14] was 3.71 µM and the TGI [15] was 17 µM. The TGI [16] was 25.8 µM, the TGI [17] was > 43.4 µM and the TGI [18] was 8.49 µM. For the same compound, the TGI [19] was 22.1 µM, the TGI [20] was 3.13 µM and the TGI [21] was 3.91 µM. The TGI [22] was 12.2 µM, the TGI [23] was 3.71 µM and the TGI [24] was 15.1 µM. The TGI [25] was 6.42 µM, the TGI [26] was 11.1 µM and the TGI [27] was 22.4 µM. For the same compound, the TGI [28] was 3.09 µM, the TGI [29] was 3.93 µM and the TGI [30] was 3.96 µM. The TGI [31] was 15 µM, the TGI [32] was 6.8 µM and the TGI [33] was 3.03 µM. For the same compound, the TGI [34] was 7.99 µM, the TGI [35] was 13.1 µM and the TGI [36] was 26.9 µM. The TGI [37] was 7.44 µM, the TGI [38] was 22.9 µM and the TGI [39] was 33.3 µM. It also gave a TGI [40] of 33.1 µM, a TGI [41] of 22.1 µM and a TGI [42] of 3.74 µM. It also gave a TGI [43] of 7.84 µM, a TGI [44] of 4.15 µM and a TGI [45] of 11.1 µM. It also gave a TGI [46] of 4.87 µM, a TGI [47] of 27.4 µM and a TGI [48] of 26.2 µM. For the same compound, the TGI [49] was 8.66 µM, the TGI [50] was 11 µM and the TGI [51] was > 22.8 µM. The TGI [52] was 29.6 µM, the TGI [53] was 15.6 µM and the TGI [54] was 15.6 µM. For the same compound, the TGI [55] was 38.2 µM, the TGI [56] was 3.38 µM and the TGI [57] was 17.1 µM. For the same compound, the TGI [58] was 22.5 µM and the TGI [59] was 3.91 µM.
